Reference: patent US20140356416A1, “LIPOSOMAL DRUG ENCAPSULATION” (priority 2011, published 2014)

Assays:
[1] = Reverse pH gradient drug encapsulation efficiency in liposomes; format: physicochemical; details: for drug encapsulation: reverse pH gradient technology, FIG. 10
Protocol: The dried lipid film was hydrated with a buffer containing either ammonium phosphate, ammonium sulfate, sodium phosphate, or sodium sulfate (300 mM, pH 7.4) and vortexed for 1 minute to remove any adhering lipid film. Sonication in a bath sonicator (ULTRAsonik 28X) for 1 minute at room temperature produced multilamellar vesicles (MLV). MLVs were then sonicated with a Ti-probe (Branson 450 sonifier) for 2 minutes to produce small unilamellar vesicles (SUV), indicated by the formation of a translucent solution. Extrusion through a 100 nm pore size polycarbonate filter (Whatman) was the final stage of a stepwise series of extrusions to reduce SUV size.
The prepared liposomes with internal buffer at pH 3 or 7.4 were passed through a Sephadex G-50 column equilibrated with HEPES buffered saline (HBS; 20 mM HEPES, 150 mM NaCl, pH 7.4) to exchange the external buffer. […] The solution was heated at 50° C. for 20 minutes, left to stand 4 hours at room temperature, and then applied to a Sephadex G-50 column and eluted with MilliQ water.

[2] = Acute toxicity of free staurosporine at high dose; format: in vivo; details: 5 mg/Kg
Excerpt: Future, more comprehensive studies will use even lower doses of staurosporine alone, and in combination with other agents.

U87 cells = assay: In vivo anti-tumor activity, very large U87 flank tumors (180-200 mm^3); details: treatment over two weeks
[3] = 0.8 mg/Kg injected as free drug, 'would very likely be' (Gurley et al.); cited from earlier work

| SMILES | drug encapsulation [1] | acute toxicity [2] | liposomal loading capacity, peak value ([1]; drug to lipid ratio 0.09 (mole/mole)) [%] | increase of encapsulation when a gradient existed ([1]; internal buffer pH 7.4 versus pH 3, external buffer pH 3) [fold] | encapsulation rate ([1]; internal pH 5, external pH 7.4) | body weight (U87 cells) | tumor growth (U87 cells; relative to PBS (p<0.004)) | fraction cleared after one circulatory pass [3] [%] |
| --- | --- | --- | --- | --- | --- | --- | --- | --- |
| COc1cc2ncnc(Nc3ccc(F)c(Cl)c3)c2cc1OCCCN1CCOCC1 [Gefitinib, N-(3-chloro-4-fluoro-phenyl)-7-methoxy-6-(3-morpholin-4-ylpropoxy)quinazolin-4-amine] | good efficacy | – | – | – | – | – | – | – |
| O=c1cc(N2CCOCC2)oc2c(-c3ccccc3)cccc12 [LY29004] | good efficacy | – | – | – | – | – | – | – |
| CN[C@@H]1C[C@H]2O[C@@](C)([C@@H]1OC)n1c3ccccc3c3c4c(c5c6ccccc6n2c5c31)C(=O)NC4 [staurosporine, (9S,10R,11R,13R)-2,3,10,11,12,13-Hexahydro-10-methoxy-9-methyl-11-(methylamino)-9,13-epoxy-1H,9H-diindolo[1,2,3-gh:3′,2′,1′-1m]pyrrolo[3,4-j][1,7]benzodiazonin-1-one] | – | acutely lethal | 70 | 14 | very low | body weight did decline | no demonstrable effect | 99 |
